The target in experiment [1] is LCK (Homo sapiens, UniProt P06239). The experiment can be described thus: IC50 inhibitory activity against LCK kinase. The class given is biochemical. How it is done: (§1) IC50 values were calculated by measuring the inhibitory activity against LCK, c-Src, p38a/MAPK14, ABL1, DDR1 and FGR kinases of the compounds of the present invention.
Experiment [2] deals with c-Src (Homo sapiens, UniProt P12931). The experiment can be described thus: IC50 inhibitory activity against c-Src kinase. The class given is biochemical. The protocol: as §1
c-Src, sequence (P12931 whole entry): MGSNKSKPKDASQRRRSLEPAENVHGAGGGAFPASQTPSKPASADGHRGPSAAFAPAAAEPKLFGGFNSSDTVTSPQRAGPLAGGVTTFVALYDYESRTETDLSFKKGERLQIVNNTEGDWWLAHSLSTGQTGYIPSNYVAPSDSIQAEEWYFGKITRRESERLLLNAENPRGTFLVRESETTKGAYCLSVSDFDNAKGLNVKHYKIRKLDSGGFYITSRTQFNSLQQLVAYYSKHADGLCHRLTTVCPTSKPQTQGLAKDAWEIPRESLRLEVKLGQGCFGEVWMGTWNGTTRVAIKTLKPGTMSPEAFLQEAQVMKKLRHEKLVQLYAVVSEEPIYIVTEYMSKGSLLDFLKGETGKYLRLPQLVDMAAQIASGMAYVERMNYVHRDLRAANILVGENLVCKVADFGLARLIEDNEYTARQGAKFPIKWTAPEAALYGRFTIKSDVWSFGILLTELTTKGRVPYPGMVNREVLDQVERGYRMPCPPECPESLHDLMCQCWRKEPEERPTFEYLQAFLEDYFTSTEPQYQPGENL

pIC50: −log10 of the molar value. Where two headings read alike, the source gives them in different places. Square brackets hold non-standard residues; d marks the D form. Peptide text beside a SMILES is read from it. * marks the point of attachment. X1 = Cc1ccc(Nc2ncc3c(n2)N(C)C(=O)N(c2cc(C(=O)*)ccc2C)C3)cn1; Pip = O=C(O)[C@@H]1CCCCN1; Ac4c = NC1(C(=O)O)CCC1; Aib = CC(C)(N)C(=O)O

LCK, sequence (P06239 whole entry): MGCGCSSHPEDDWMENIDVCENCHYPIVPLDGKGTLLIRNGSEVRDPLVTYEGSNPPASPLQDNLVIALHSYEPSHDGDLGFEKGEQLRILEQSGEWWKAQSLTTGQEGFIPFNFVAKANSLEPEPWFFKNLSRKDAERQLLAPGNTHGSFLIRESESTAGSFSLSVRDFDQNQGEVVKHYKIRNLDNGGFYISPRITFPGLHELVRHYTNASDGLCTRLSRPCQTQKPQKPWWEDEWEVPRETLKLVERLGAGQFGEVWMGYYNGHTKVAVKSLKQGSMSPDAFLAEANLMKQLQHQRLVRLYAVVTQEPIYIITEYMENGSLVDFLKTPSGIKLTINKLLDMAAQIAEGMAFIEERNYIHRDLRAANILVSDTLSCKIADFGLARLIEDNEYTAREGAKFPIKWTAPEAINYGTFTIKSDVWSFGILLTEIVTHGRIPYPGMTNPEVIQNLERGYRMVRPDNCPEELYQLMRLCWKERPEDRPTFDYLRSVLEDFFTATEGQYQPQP

For orientation: pIC50 means the IC50 on a negative log10 scale, so that one unit is a factor of ten. In the case of `Cc1ccc(Nc2ncc3c(n2)N(C)C(=O)N(c2cc(C(=O)N[C@H](C(=O)N4CCC[C@H]4C(=O)N[C@H](C(=O)N[C@H](C)c4ccccc4)C(C)C)C(C)C)ccc2C)C3)cn1` [Example 9, (S)—N—((S)-3-methyl-1-oxo-1-(((R)-1-phenylethyl)amino)butan-2-yl)-1-((4-methyl-3-(1-methyl-7-((6-methylpyridin-3-yl)amino)-2-oxo-1,4-dihydropyrimido[4,5-d]pyrimidin-3(2H)-yl)benzoyl)-L-valyl)pyrrolidine-2-carboxamide], the results for the negative-log IC50 (pIC50) in experiment [1] (read-out: LCK IC50) and in experiment [2] (read-out: c-Src IC50) were 6.70 to 9.00 and below 6.22, respectively.
For the compound `Cc1ccc(Nc2ncc3c(n2)N(C)C(=O)N(c2cc(C(=O)N[C@@H](C(=O)N4CCC[C@@H]4C(=O)NC(C)(C)C(=O)N[C@H](CC(C)C)C(=O)N(C)C)C(C)C)ccc2C)C3)cn1` [Example 10, (R)—N-(1-(((R)-1-(dimethylamino)-4-methyl-1-oxopentan-2-yl)amino)-2-methyl-1-oxopropan-2-yl)-1-((4-methyl-3-(1-methyl-7-((6-methylpyridin-3-yl)amino)-2-oxo-1,4-dihydropyrimido[4,5-d]pyrimidin-3(2H)-yl)benzoyl)-D-valyl)pyrrolidine-2-carboxamide] (X1-[dV][dP][Aib][dL]-NMe2), the figures for the pIC50 in experiment [1] and in experiment [2] were 6.40 to 6.70 and below 6.22, respectively.
As for `Cc1ccc(Nc2ncc3c(n2)N(C)C(=O)N(c2cc(C(=O)N[C@H](C(=O)N4CCC[C@H]4C(=O)N[C@@H](Cc4ccccc4)C(=O)N[C@@H](CC(C)C)C(=O)N(C)C)C(C)C)ccc2C)C3)cn1` [Example 11] (X1-VPFL-NMe2), the pIC50 in experiment [1] (read-out: LCK IC50) and in experiment [2] (read-out: c-Src IC50) was 6.70 to 9.00 in each case.
Turning to `Cc1ccc(Nc2ncc3c(n2)N(C)C(=O)N(c2cc(C(=O)N[C@H](C(=O)N4CCC[C@H]4C(=O)NC4(C(=O)N[C@@H](CC(C)C)C(=O)N(C)C)CCC4)C(C)C)ccc2C)C3)cn1` [Example 12, (S)—N-(1-(((S)-1-(dimethylamino)-4-methyl-1-oxopentan-2-yl)carbamoyl)cyclobutyl)-1-((4-methyl-3-(1-methyl-7-((6-methylpyridin-3-yl)amino)-2-oxo-1,4-dihydropyrimido[4,5-d]pyrimidin-3(2H)-yl)benzoyl)-L-valyl)pyrrolidine-2-carboxamide] (X1-VP[Ac4c]L-NMe2), the values for the pIC50 in experiment [1] and in experiment [2] were 6.70 to 9.00 and below 6.22, respectively.
With `Cc1ccc(Nc2ncc3c(n2)N(C)C(=O)N(c2cc(C(=O)N[C@H](C(=O)N4CCCC[C@H]4C(=O)NC(C)(C)C(=O)N[C@@H](CC(C)C)C(=O)N(C)C)C(C)C)ccc2C)C3)cn1` [Example 13, (S)—N-(1-(((S)-1-(dimethylamino)-4-methyl-1-oxopentan-2-yl)amino)-2-methyl-1-oxopropan-2-yl)-1-((4-methyl-3-(1-methyl-7-((6-methylpyridin-3-yl)amino)-2-oxo-1,4-dihydropyrimido[4,5-d]pyrimidin-3(2H)-yl)benzoyl)-L-valyl)piperidine-2-carboxamide] (X1-V[Pip][Aib]L-NMe2), the pIC50 was 6.70 to 9.00 in experiment [1] (read-out: LCK IC50) and 6.22 to 6.40 in experiment [2] (read-out: c-Src IC50).
For the compound `Cc1ccc(Nc2ncc3c(n2)N(C)C(=O)N(c2cc(C(=O)N[C@H](C(=O)N4CCC[C@H]4C(=O)NC(C)(C)C(=O)NCC(=O)N(C)C)C(C)C)ccc2C)C3)cn1` [Example 14, (S)—N-(1-((2-(dimethylamino)-2-oxoethyl)amino)-2-methyl-1-oxopropan-2-yl)-1-((4-methyl-3-(1-methyl-7-((6-methylpyridin-3-yl)amino)-2-oxo-1,4-dihydropyrimido[4,5-d]pyrimidin-3(2H)-yl)benzoyl)-L-valyl)pyrrolidine-2-carboxamide] (X1-VP[Aib]G-NMe2), the values for the pIC50 in experiment [1] and in experiment [2] were 6.70 to 9.00 and below 6.22, respectively.
On to `Cc1ccc(Nc2ncc3c(n2)N(C)C(=O)N(c2cc(C(=O)N[C@H](C(=O)N4CCC[C@H]4C(=O)NC(C)(C)C(=O)N[C@H](C(=O)N(C)C)C(C)C)C(C)C)ccc2C)C3)cn1` [Example 22, (S)—N-(1-(((S)-1-(dimethylamino)-3-methyl-1-oxobutan-2-yl)amino)-2-methyl-1-oxopropan-2-yl)-1-((4-methyl-3-(1-methyl-7-((6-methylpyridin-3-yl)amino)-2-oxo-1,4-dihydropyrimido[4,5-d]pyrimidin-3(2H)-yl)benzoyl)-L-valyl)pyrrolidine-2-carboxamide] (X1-VP[Aib]V-NMe2), for which the negative-log IC50 (pIC50) in experiment [1] (read-out: LCK IC50) and in experiment [2] (read-out: c-Src IC50) was below 6.22 each time.
On to `Cc1ccc(Nc2ncc3c(n2)N(C)C(=O)N(c2cc(C(=O)N[C@H](C(=O)N4CCC[C@@H]4C(=O)NC(C)(C)C(=O)N[C@H](C(=O)N(C)C)C(C)C)C(C)C)ccc2C)C3)cn1` [Example 23, (R)—N-(1-(((S)-1-(dimethylamino)-3-methyl-1-oxobutan-2-yl)amino)-2-methyl-1-oxopropan-2-yl)-1-((4-methyl-3-(1-methyl-7-((6-methylpyridin-3-yl)amino)-2-oxo-1,4-dihydropyrimido[4,5-d]pyrimidin-3(2H)-yl)benzoyl)-L-valyl)pyrrolidine-2-carboxamide] (X1-V[dP][Aib]V-NMe2), for which the negative logarithm of the IC50 (pIC50) in experiment [1] (read-out: LCK IC50) and in experiment [2] (read-out: c-Src IC50) was below 6.22 throughout.
In the case of `Cc1ccc(Nc2ncc3c(n2)N(C)C(=O)N(c2cc(C(=O)N[C@@H](Cc4ccccc4)C(=O)N4CCC[C@H]4C(=O)NC(C)(C)C(=O)N[C@H](C(=O)N(C)C)C(C)C)ccc2C)C3)cn1` [Example 24, (S)—N-(1-(((S)-1-(dimethylamino)-3-methyl-1-oxobutan-2-yl)amino)-2-methyl-1-oxopropan-2-yl)-1-((4-methyl-3-(1-methyl-7-((6-methylpyridin-3-yl)amino)-2-oxo-1,4-dihydropyrimido[4,5-d]pyrimidin-3(2H)-yl)benzoyl)-L-phenylalanyl)pyrrolidine-2-carboxamide] (X1-FP[Aib]V-NMe2), the pIC50 in experiment [1] (read-out: LCK IC50) was 6.70 to 9.00; in experiment [2] (read-out: c-Src IC50), below 6.22.
Turning to `Cc1ccc(Nc2ncc3c(n2)N(C)C(=O)N(c2cc(C(=O)N[C@@H](C)C(=O)N4CCC[C@H]4C(=O)NC(C)(C)C(=O)N[C@H](C(=O)N(C)C)C(C)C)ccc2C)C3)cn1` [Example 25, (S)—N-(1-(((S)-1-(dimethylamino)-3-methyl-1-oxobutan-2-yl)amino)-2-methyl-1-oxopropan-2-yl)-1-((4-methyl-3-(1-methyl-7-((6-methylpyridin-3-yl)amino)-2-oxo-1,4-dihydropyrimido[4,5-d]pyrimidin-3(2H)-yl)benzoyl)-L-alanyl)pyrrolidine-2-carboxamide] (X1-AP[Aib]V-NMe2), the pIC50 in experiment [1] is 6.40 to 6.70; in experiment [2], below 6.22.
Consider `Cc1ccc(Nc2ncc3c(n2)N(C)C(=O)N(c2cc(NC(=O)c4ccc5c(c4)NC(=O)[C@H](Cc4cccc(F)c4)N=C5c4ccccc4)ccc2C)C3)cn1` [Example 27, (S)-3-(3-fluorobenzyl)-N-(4-methyl-3-(1-methyl-7-((6-methylpyridin-3-yl)amino)-2-oxo-1,4-dihydropyrimido[4,5-d]pyrimidin-3(2H)-yl)phenyl)-2-oxo-5-phenyl-2,3-dihydro-1H-benzo[e][1,4]diazepine-8-carboxamide], for which the pIC50 in experiment [1] (read-out: LCK IC50) and in experiment [2] (read-out: c-Src IC50) was 6.70 to 9.00 in each case.
For `Cc1ccc(Nc2ncc3c(n2)N(C)C(=O)N(c2cc(NC(=O)c4ccc5c(c4)NC(=O)[C@H](Cc4ccc(F)cc4)N=C5c4ccccc4)ccc2C)C3)cn1` [Example 28, (S)-3-(4-fluorobenzyl)-N-(4-methyl-3-(1-methyl-7-((6-methylpyridin-3-yl)amino)-2-oxo-1,4-dihydropyrimido[4,5-d]pyrimidin-3(2H)-yl)phenyl)-2-oxo-5-phenyl-2,3-dihydro-1H-benzo[e][1,4]diazepine-8-carboxamide], the pIC50 in experiment [1] (read-out: LCK IC50) and in experiment [2] (read-out: c-Src IC50) was 6.70 to 9.00 in each case.
On to `Cc1ccc(Nc2ncc3c(n2)N(C)C(=O)N(c2cc(NC(=O)c4ccc5c(c4)NC(=O)[C@H](Cc4ccccc4C)N=C5c4ccccc4)ccc2C)C3)cn1` [Example 29, (S)—N-(4-methyl-3-(1-methyl-7-((6-methylpyridin-3-yl)amino)-2-oxo-1,4-dihydropyrimido[4,5-d]pyrimidin-3(2H)-yl)phenyl)-3-(2-methylbenzyl)-2-oxo-5-phenyl-2,3-dihydro-1H-benzo[e][1,4]diazepine-8-carboxamide], for which the negative logarithm of the IC50 (pIC50) in experiment [1] (read-out: LCK IC50) and in experiment [2] (read-out: c-Src IC50) was 6.70 to 9.00 each time.
Take `Cc1ccc(Nc2ncc3c(n2)N(C)C(=O)N(c2cc(NC(=O)c4ccc5c(c4)NC(=O)[C@@H](Cc4ccccc4)N=C5c4ccccc4)ccc2C)C3)cn1` [Example 36, (R)-3-benzyl-N-(4-methyl-3-(1-methyl-7-((6-methylpyridin-3-yl)amino)-2-oxo-1,4-dihydropyrimido[4,5-d]pyrimidin-3(2H)-yl)phenyl)-2-oxo-5-phenyl-2,3-dihydro-1H-benzo[e][1,4]diazepine-8-carboxamide]: the pIC50 in experiment [1] (read-out: LCK IC50) and in experiment [2] (read-out: c-Src IC50) was 6.70 to 9.00 throughout.
`Cc1ccc(Nc2ncc3c(n2)N(C)C(=O)N(c2cc(NC(=O)c4ccc5c(c4)N(CC(C)C)C(=O)[C@H](CC(C)C)N=C5c4ccccc4)ccc2C)C3)cn1` [Example 39, (S)-1,3-diisobutyl-N-(4-methyl-3-(1-methyl-7-((6-methylpyridin-3-yl)amino)-2-oxo-1,4-dihydropyrimido[4,5-d]pyrimidin-3(2H)-yl)phenyl)-2-oxo-5-phenyl-2,3-dihydro-1H-benzo[e][1,4]diazepine-8-carboxamide]: the pIC50 in experiment [1] (read-out: LCK IC50) was 6.70 to 9.00; in experiment [2] (read-out: c-Src IC50) it was 6.22 to 6.40.
Turning to `CC1=N[C@@H](CC(C)C)C(=O)N(C)c2cc(C(=O)Nc3ccc(C)c(N4Cc5cnc(Nc6ccc(C)nc6)nc5N(C)C4=O)c3)ccc21` [Example 40, (S)-3-isobutyl-1,5-dimethyl-N-(4-methyl-3-(1-methyl-7-((6-methylpyridin-3-yl)amino)-2-oxo-1,4-dihydropyrimido[4,5-d]pyrimidin-3(2H)-yl)phenyl)-2-oxo-2,3-dihydro-1H-benzo[e][1,4]diazepine-8-carboxamide], the pIC50 in experiment [1] (read-out: LCK IC50) and in experiment [2] (read-out: c-Src IC50) was 6.70 to 9.00 each time.

Source of the values: patent US11530221B2, “Pyrimido[4,5-d]pyrimidin-2-one derivatives as protein kinase inhibitors” (KOREA INSTITUTE OF SCIENCE AND TECHNOLOGY, priority 2019, dated 2022).
